The target of assay [1] is T1, survivin (Homo sapiens, UniProt O15392).
T1 construct: gene BIRC5; His6-tagged full length survivin
Put plainly: fluorescence intensity titration of the intrinsically fluorescent ligand with survivin; also CONA bead imaging and affinity resin capture. The assay is classed as binding.

Assay [2] deals with T1, survivin. The assay can be described thus: fluorescence intensity titration of the intrinsically fluorescent ligand with survivin ([…] fit); also CONA bead imaging, affinity resin capture, native PAGE. The assay is classed as binding.

This passage reports Kd results from PMC8342005, “A two-step resin based approach to reveal survivin-selective fluorescent probes” (RSC Chemical Biology, 2020).

By Kd is commonly meant the concentration at which binding is half-saturated. Low readings indicate tighter binding, high ones weaker binding.

T1 sequence (O15392 whole entry): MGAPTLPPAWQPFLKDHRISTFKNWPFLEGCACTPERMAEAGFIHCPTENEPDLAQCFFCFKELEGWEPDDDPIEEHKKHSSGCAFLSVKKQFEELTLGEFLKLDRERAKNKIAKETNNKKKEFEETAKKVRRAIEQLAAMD

`COc1cc2[nH]c1/C=C1/C=CC(=N1)CCCCCCCCCc1ccc-2[nH]1` [compound 1, cyclononylprodigiosin] gave a Kd in assay [1] of 149 ± 8.3 µM.

In assay [2], `CCCCCC1=C/C(=C/c2[nH]c(-c3ccc[nH]3)cc2OC)N=C1C` [compound 2, prodigiosin] displayed a Kd of 11.5 ± 3.1 µM.
